From patent US7807185B2, “Methods of inhibiting growth of bacteria, yeast, fungus, and virus with Pseudomonas lindbergii and Bacillus coagulans extracellular products” (Ganeden Biotech, Incorporated, priority 1997, dated 2010)

What was measured:
Type in all cases: cell-based
Conditions in all cases: 18 hr at 30° C.
[1] = tested on: various opportunistic bacterial pathogens; assay: in vitro bacterial pathogen screen, zone of inhibition (DIFCO BACTROL Disk Set)
Text: The ability of Bacillus coagulans to inhibit various opportunistic bacterial pathogens was quantitatively ascertained by use of an in vitro assay. This assay is part of a standardized bacterial pathogen screen (developed by the U.S. Food and Drug Administration (FDA)) and is commercially available on solid support disks (DIFCO® BACTROL® Disk Set). To perform the assay, potato-dextrose plates (DIFCO®) were initially prepared using standard procedures. The plates were then individually inoculated with each of the bacteria (approximately 1.5×10^6 CFU) to be tested, so as to form a confluent bacterial bed.
Inhibition by Bacillus coagulans was subsequently ascertained by placing approximately 1.5×10^6 CFU of Bacillus coagulans in 10 μl of broth or buffer, directly in the center of the potato-dextrose plate, with one test locus being approximately 8 mm in diameter per plate. A minimum of three test loci were used for each assay. The negative control consisted of a 10 μl volume of a sterile saline solution, whereas the positive control consisted of a 10 μl volume of glutaraldehyde. The plates were then incubated for approximately about 18 hr at 30° C., at which time the zones of inhibition were measured. […]

[2] = tested on: various species of the fungus Trichophyton; assay: in vitro zone of inhibition assay on potato-dextrose plates, Trichophyton
Experimental: In the assay, potato-dextrose plates (DIFCO®, Detroit, Mich.) were prepared using standard procedures and were inoculated individually with a confluent bed (about 1.7×10^6) of various species of the fungus Trichophyton. The tested fungal strains of Trichophyton species (available from the American Type Culture Collection (ATCC; 10801 University Boulevard, Manassas, Va. 20110-2209)) and their ATCC accession numbers, as well as the results of in vitro inhibition by Bacillus coagulans are illustrated in FIG. 3.
Inhibition by Bacillus coagulans was ascertained by placing on the plate approximately 1.5×10^6 colony forming units (CFU) in 10 μl of broth or buffer, plated directly in the center of the potato-dextrose plate, with one test locus per plate. The size of each test locus was approximately 8 mm in diameter and a minimum of three tests were performed for each inhibition assay. The negative control consisted of a […] volume of sterile saline solution, whereas the positive control consisted of a […] volume 2% Miconazole (1-[2-(2,4-dichlorophenyl)-2-[(2,4-dichlorophenyl)methoxy]methyl-[…] within an inert cream.
The plates were then incubated for approximately 18 hr at 30° C., at which time the zones of inhibition were measured. […]

four species of Candida = assay: in vitro zone of inhibition assay on potato-dextrose plates, Candida
Experimental: Each of the yeast pathogens and their ATCC accession numbers are illustrated in FIG. 4.
In the in vitro inhibition assay, potato-dextrose plates (DIFCO®, Detroit, Mich.) were prepared using standard procedures and were inoculated individually with a confluent bed about 1.7×10^6 of the four species of Candida. Inhibition by Bacillus coagulans was tested by placing on the plate about 1.5×10^6 colony forming units (CFU) in 10 μl of broth or buffer, plated directly in the center of the potato-dextrose plate with one test locus of about 8 mm in diameter per plate. A minimum of three tests were performed for each inhibition assay. The negative control consisted of a 10 μl volume of a sterile saline solution, whereas the positive control consisted of a 1 μl volume of Miconazole cream.
The plates were then incubated for approximately 18 hr at 30° C., at which time the zones of inhibition were measured. As designated herein, “excellent inhibition” means the zone was 10 mm or greater in diameter; and “good inhibition” means the zone was greater than 2 mm in diameter, but less than 10 mm in diameter.

Row | SMILES | zone of inhibition diameter ([1]; 10 μl volume of glutaraldehyde, average of three tests) | inhibition grade (zone of inhibition) [1] | zone of inhibition diameter ([2]; 10 ml volume 2% Miconazole in inert cream, mean average of three tests) | inhibition grade (zone of inhibition) [2] | zone of inhibition diameter (four species of Candida; 1 μl volume of Miconazole cream, average of three tests) | inhibition grade (zone of inhibition) (four species of Candida)
1 | O=CCCCC=O [glutaraldehyde] | approximately 16.2 mm | excellent | – | – | – | –
2 | Clc1ccc(COC(Cn2ccnc2)c2ccc(Cl)cc2Cl)c(Cl)c1 (stereo not drawn) [positive control] | – | – | approximately 8.5 mm | good inhibition (the zone was greater than 2 mm in diameter, but less than 10 mm in diameter) | approximately 8.7 mm | good inhibition (the zone was greater than 2 mm in diameter, but less than 10 mm in diameter)
